Source: article PMC9696794, “Synthesis and Antimicrobial Activity of Short Analogues of the Marine Antimicrobial Peptide Turgencin A: Effects of SAR Optimizations, Cys-Cys Cyclization and Lipopeptide Modifications” (International Journal of Molecular Sciences, 2022)
In brackets after ≈: the same amount, converted by molar mass. Read-outs that look alike come from different tables or passages of the source. Where a SMILES comes first, the peptide text is derived from it. Bridges are numbered along the chain shown (N, C = ends). The star is where a group is joined. Lauroyl = CCCCCCCCCCCC(=O)*; Octanoyl = CCCCCCCC(=O)*

Experiments:
E. coli (Ec, ATCC 25922) = test: microbe, parasite or virus in culture; assay type: cell-based, Escherichia coli; details: for MIC: Escherichia coli, ATCC25922
In short: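 Cultures grown in Mueller–Hinton broth were adjusted by OD600 to 2.5–3 × 10^4 CFU/mL and mixed with two-fold peptide dilutions from 256 to 1 µg/mL. Plates were incubated at 35 °C with OD595 monitored every hour for 24 h.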

[1] = system: human red blood cells (RBC); test: Haemolytic activity assay; assay type: cell-based; details: for Selectivity index (SI) G- / Selectivity index (SI) G+ / Selectivity index (SI) Fungi: Table S3, highest tested concentration used where EC50 above it; for Selectivity index (SI) G-: EC50/GM of Gram-negative strains; for Selectivity index (SI) G+: EC50/GM of Gram-positive strains; for Selectivity index (SI) Fungi: EC50/GM of fungi; for SI (selectivity index = EC50/GM): haemolytic EC50 over GM of MIC against all bacterial strains, Table 1; for RBC Tox. (EC50), haemolytic activity: human RBC, 1 h, 37 °C, concentration giving 50% haemolysis
In short: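 Washed human erythrocytes (1% hematocrit final) incubated 1 h at 37 °C with agitation with lipopeptides at 500–3.9 μM in PBS (≤1% DMSO), duplicates. Haemoglobin release read at 545 nm relative to 0.1% Triton X-100; EC50 is 50% haemolysis, averaged from three experiments.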

E. coli K12 [2] = test: Bacterial biosensor membrane integrity assay (luciferase, D-luciferin influx); assay type: cell-based, Escherichia coli
Excerpt: (§1) Changes in light emission of sensor bacteria constitutively expressing the bacterial lux operon or a eukaryotic luciferase can be used as a proxy for viability and membrane integrity, respectively. Light production of the viability biosensors represents metabolic activity of the bacteria. For the membrane integrity assay on the other hand, light production depends on the influx of the externally added D-luciferin, which at neural pH will not readily pass the intact plasma membrane. An initial increase in light production therefore corresponds with damage to the plasma membrane and a concomitant influx of D-luciferin, while a subsequent drop in light emission indicates diminishing ATP reserves of the dying sensor bacteria.
A membrane integrity assay was performed using two bacterial biosensors, B. subtilis 168 (ATCC 23857) and E. coli K12 (ATCC MC1061). Both strains carry the pCSS962 plasmid that contains a eukaryotic luciferase gene (lucGR), which originate from the click beetle Pyrophorus plagiophthalamus. The assay was performed as described previously. […] D-luciferin potassium salt (Synchem Inc., Elk Grove Village, IL, USA) was added to the cell suspension at a final concentration of 1 mM. Two-fold dilutions (final assay concentration of 50–1.56 µg/mL) of peptides dissolved in Milli-Q water were prepared and added (10 µL per well) to black round-bottom 96-well microtiter plates (Nunc). Milli-Q water served as a negative control used for the normalization purpose and CHX, having known membranolytic activity, was used as a positive control. The plates were loaded into a Synergy H1 Hybrid Reader and the background luminescence was monitored before aliquots (90 µL) of the cell suspension with D-luciferin were added, one well at the time, by an automatic injector. Light emission was recorded every second for 3 min. Each study was performed at least three times independently, and the figures show a representative dataset.

E. coli K12 [3] = test: Bacterial biosensor viability assay (lux operon luminescence); assay type: cell-based, Escherichia coli; details: E. coli K12, within 3 min
Excerpt: as §1
Bacterial viability, based on light production by constitutively expressed bacterial luciferase, was measured in real time according to the method described by Hansen et al.. The assay was performed using B. subtilis 168 with chromosomally integrated luxABCDE operon and E. coli K12 carrying the plasmid pCGLS-11 containing the luxCDABE operon. […] No D-luciferin was added to the cell suspension. Each assay was performed at least three times independently, and the figures show a representative dataset.

S. aureus (ATCC 9144) = test: Bacterial killing experiment (CFU count after MIC assay); assay type: cell-based, Staphylococcus aureus
Protocol: (§2) A killing experiment was performed on selected lipopeptides by using actively growing cultures of S. aureus (ATCC 9144) and E. coli (ATCC 25922). The procedure was performed as previously described. […] The number of colony-forming units (CFU) was determined after 24 h of incubation at 37 °C. The tests were performed in triplicate.

E. coli (ATCC 25922) = test: as above; assay type: cell-based, Escherichia coli
Protocol: as §2

[4] = at half-MIC, compared to growth control

Structure (SMILES)	MIC (E. coli (Ec, ATCC 25922); E. coli ATCC 25922, 24 h, read-out: Antimicrobial Activity (MIC) Gram − Ec)	MIC (E. coli (Ec, ATCC 25922); Table 2, laboratory strain, read-out: MIC E. coli ATCC 25922 (from Table 1))	Selectivity index (SI) G- [1]	Selectivity index (SI) G+ [1]	Selectivity index (SI) Fungi [1]	SI (selectivity index = EC50/GM) [1]	RBC Tox. (EC50), haemolytic activity [1]	effect in membrane integrity assay (E. coli K12 [2]; E. coli K12, 50 µg/mL)	effect on viability (light emission) (E. coli K12 [3])	colony-forming units (CFU) after treatment (S. aureus (ATCC 9144); at MIC (or above), 24 h)	colony-forming units (CFU) after treatment (S. aureus (ATCC 9144); [4])	colony-forming units (CFU) after treatment (E. coli (ATCC 25922); at MIC (or above), 24 h)	colony-forming units (CFU) after treatment (E. coli (ATCC 25922); [4])	MIC E. coli ATCC 25922 (from Table 1) (E. coli (Ec, ATCC 25922); ATCC 25922, 2 h)	Antimicrobial Activity (MIC) Gram − Ec (E. coli (Ec, ATCC 25922); ATCC 25922, 24 h)	effect in membrane integrity assay (E. coli K12 [2]; E. coli K12, 25 µg/mL)	rise in luminescence in membrane integrity assay (E. coli K12 [2]; E. coli K12, 50 µg/mL, delayed compared to chlorhexidine)	effect in membrane integrity assay (E. coli K12 [2]; E. coli K12, concentrations lower than 25 µg/mL)
[H]/N=C(\N/C(=N/[H])NCCCCCCNC(=N)NC(=N)Nc1ccc(Cl)cc1)Nc1ccc(Cl)cc1 [Chlorhexidine, reference compound]	1.6 mg/L (≈ 3.17 µM)	1.6 mg/L (≈ 3.17 µM)																
CCCCCCCC(=O)N[C@H]1CSSC[C@@H](C(=O)N[C@@H](CCCCN)C(=O)N[C@@H](CC(C)C)C(N)=O)NC(=O)[C@H](CCCCN)NC(=O)[C@H](Cc2c[nH]c3ccccc23)NC(=O)CNC(=O)[C@H](Cc2c[nH]c3ccccc23)NC(=O)[C@H](Cc2c[nH]c3ccccc23)NC(=O)[C@H](CCCCN)NC(=O)[C@H](CCCCN)NC(=O)CNC1=O [Peptide C8-cTurg-2, C8- (CGKKWWGWKC)KL-NH2] (Octanoyl-CGKKWWGWKCKL-NH2; disulfide 1-10)			78	155	35	123	439 mg/L	even further delayed rise in peak luminescence	gradual, dose-dependent reduction in viability	No CFU were observed	slightly less colony-forming units (CFU) were formed	No CFU were observed	slightly less colony-forming units (CFU) were formed					
CCCCCCCCCCCC(=O)N[C@H]1CSSC[C@@H](C(=O)N[C@@H](CCCCN)C(=O)N[C@@H](CC(C)C)C(N)=O)NC(=O)[C@H](CCCCN)NC(=O)[C@H](Cc2c[nH]c3ccccc23)NC(=O)CNC(=O)CNC(=O)[C@@H]2CCCN2C(=O)[C@H](CCCCN)NC(=O)[C@H](CCCCN)NC(=O)CNC1=O [Peptide C12-cTurg-1, C12 -(CGKKPGGWKC)KL-NH2] (Lauroyl-CGKKPGGWKCKL-NH2; disulfide 1-10)			27	77	11	55	219 mg/L		gradual, dose-dependent reduction in viability	No CFU were observed	slightly less colony-forming units (CFU) were formed	No CFU were observed	slightly less colony-forming units (CFU) were formed	2 to 4 mg/L	4 mg/L	further delayed response	3.5 fold	no effect
